Columns and labels:
[1] = test system: Erysiphe graminis, tritici; experiment: In vivo fungicidal activity, Wheat Powdery Mildew (WPM); conditions: rate 400 ppm, rating, averaged
Protocol: (§1) Test compounds are dissolved in acetone and diluted with deionized water containing about 0.05% TWEEN 20®, a polyoxyethylene sorbitan monolaurate surfactant manufactured by Atlas Chemical Industries, to give a concentration of 400 ppm. Subsequent dilutions are made with an 0.05% aqueous solution of TWEEN 20®.
(§2) Host plants are sprayed with test solution, dried and inoculated with fungi. When disease symptom development is optimal, the plants are rated for disease control according to the rating scale shown below. Each test contains inoculated treated plants, inoculated untreated plants and a reference standard.
(§3) When more than one test is run, the data are averaged.

Cercospora beticola = experiment: In vivo fungicidal activity, Sugarbeet Cercospora (SBC); conditions: rating, averaged
Protocol: as §1, §2, §3

[2] = test system: Spodoptera eridania, 3rd instar larvae, southern armyworm; experiment: Southern armyworm systemic uptake (stem systemic) test; type: in vivo; parameters: key: 0: no effect; 10-25% kill; 26-35% kill; 36-45% kill; 46-55% kill; 56-65% kill; 66-75% kill; 76-85% kill; 86-99% kill; 9: 100% kill; conditions: cut stem in emulsion 3 days
[3] = test system: Spodoptera eridania, 3rd instar larvae, southern armyworm; experiment: Southern armyworm 3rd instar test, dipped limabean leaf; type: in vivo; parameters: key: 0: no effect; 10-25% kill; 26-35% kill; 36-45% kill; 46-55% kill; 56-65% kill; 66-75% kill; 76-85% kill; 86-99% kill; 9: 100% kill; conditions: for ARMYWORM Day 3: rating at 3 days; for ARMYWORM Day 5: rating at 5 days
Summary of the method: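 Compound dissolved in 35% acetone/water at 10,000 ppm stock, diluted with water. Sieva limabean leaves dipped 3 s, dried, and exposed to ten 3rd instar larvae on damp filter paper. Mortality, reduced feeding and molting interference scored at 3 and 5 days on a rating scale.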

[4] = test system: Puccinia recondita, tritici; experiment: In vivo fungicidal activity, Wheat Leaf Rust (WLR); conditions: rate 400 ppm, rating, averaged
Protocol: as §1, §2, §3

Rhizoctonia solani = experiment: In vitro fungicidal activity, mycelial growth inhibition on agar (Rhiz); type: cell-based; conditions: 48 h, two days
Protocol: (§4) Test compounds are dissolved in acetone, diluted with sterile, deionized water and mixed with a partially cooled, autoclaved, chemically defined agar medium. This mixture is poured into several 100mm x 15mm sterile plastic plates and allowed to solidify. The surface of each plate is inoculated with a single disc of mycelium and agar cut with an 8mm diameter cork borer from actively growing cultures of assay fungi on a chemically defined agar medium. The plates are incubated at room temperature. Growth inhibition is determined when the mycelial growth on unamended control media has reached the edge of the petri plates. The time interval varies depending on the growth rate of the fungus; two days for Pythium ultimum (pyth) and Rhizoctonia solani (Rhiz) , five days for Botrytis cinerea (Betry) and 7-10 days for Pseudocercosporella herpotrichoides (Pseudo). Each colony diameter is measured and compared with the untreated control and the percent inhibition is calculated as follows: [formula] Each test includes a solvent blank consisting of the formulation without a test compound in addition to the untreated control.
(§5) Assay fungi include the plant pathogens, Pythium ultimum (Pyth) and Rhizoctonia solani (Rhiz).
(§6) When more than one test is run the data are averaged.

Plasmopara viticola = experiment: In vivo fungicidal activity, Grape Downy Mildew (GDM); conditions: rate 400 ppm, rating, averaged
Protocol: as §1, §2, §3

Venturia inaequalis = experiment: In vivo fungicidal activity, Apple Scab (AS); conditions: rate 400 ppm, host plants sprayed then inoculated, rating, averaged
Protocol: as §1, §2, §3

Pythium ultimum = experiment: In vitro fungicidal activity, mycelial growth inhibition on agar (Pyth); type: cell-based; conditions: Globisporangium ultimum, 48 h, two days
Protocol: as §4, §5, §6

N#Cc1c(Br)c(Br)n(CSc2ccccc2)c1-c1ccc(C(F)(F)F)cc1 [Example 45, 4,5-dibromo-1-[(phenylthio)methyl]-2-(alpha, alpha,alpha-trifluoro-p-tolyl)pyrrole-3-carbonitrile]
Disease Control WPM [1]: 1.0 | Disease Control SBC (Cercospora beticola; rate 25 ppm): 6.0 | Disease Control SBC (Cercospora beticola; rate 100 ppm): 7.0 | Disease Control SBC (Cercospora beticola; rate 400 ppm): 7.5 | ARMYWORM Stem Sys [2]: 0 | ARMYWORM Day 3 ([3]; 100 ppm): 0 | ARMYWORM Day 5 ([3]; 100 ppm): 0 | ARMYWORM Day 3 ([3]; 1000 ppm): 8 (86-99% kill) | ARMYWORM Day 5 ([3]; 1000 ppm): 8 (86-99% kill) | Disease Control WLR [4]: 6.0 | inhibition at 1 ppm (Rhizoctonia solani; rate 1 ppm in agar): 0% | inhibition at 10 ppm (Rhizoctonia solani; rate 10 ppm in agar): 3.5% | inhibition at 25 ppm (Rhizoctonia solani; rate 25 ppm in agar): 2% | Disease Control GDM (Plasmopara viticola): 0 (0) | Disease Control AS (Venturia inaequalis): 0 (0) | inhibition at 1 ppm (Pythium ultimum; rate 1 ppm in agar): 0% | inhibition at 10 ppm (Pythium ultimum; rate 10 ppm in agar): 7% | inhibition at 25 ppm (Pythium ultimum; rate 25 ppm in agar): 4.5%
